According to US4801593A, “Chemotherapeutic agents” (Burroughs Wellcome Co., priority 1979, dated 1989):

System: virus
Test: Intranasal administration - simulation in vitro (plaque inhibition test, compound applied to the lids of the petri dishes)
Type: cell-based
Conditions: 1 μg applied in ethanol to the lids of the petri dishes; confluent sheet of cells covered with agarose gel
Description: (§1) Activity may be detected by the plaque inhibition (PI) test and measured by the plaque reduction (PR) test. Both assays involve the formation of a monolayer cell culture in a petri dish followed by infection with a virus suspension, and then overlaying the culture with nutrient agarose in the form of a gel. This gel ensures that there is no spread of virus throughout the culture and thus areas of localised cell destruction, or plaques, are formed.
In the plaque inhibition test a filter paper disc which holds 0.01 ml when impregnated with a solution of compound is placed on top of the agarose gel. The compound may then diffuse throughout the gel so that its greatest concentration will be around the disc and its lowest concentration towards the periphery of the petri dish. The efficacy of the compound may be detected by observing the zone of inhibition of plaque formation.
Petri dishes were prepared, as for the plaque inhibition test and the confluent sheet of cells was covered with a layer of agarose gel. The compound, 2-phenyltetrahydroisoquinoline (1 μg) was dissolved in ethanol, and applied to the lids of the petri dishes. When the ethanol had evaporated, leaving the compound spread over the inside of the lids, these were replaced on the petri dishes.

| Compound | inhibition of plaque formation |
| --- | --- |
| c1ccc(N2CCc3ccccc3C2)cc1 [Example 4, 2-phenyl-1,2,3,4-tetrahydroisoquinoline] | total inhibition of plaque formation |

System: rhinovirus serotype 1B
Test: plaque reduction (PR) test
Type: cell-based
Conditions: Enterovirus, read-out: PR(ED50)
Procedure: as §1
Detectable activity is measured with the plaque reduction assay. A range of concentrations of compound of known molarity are incorporated in the nutrient agarose overlay. Plaque suppression is proportional to compound concentration. Plaque numbers are expressed as percentages of a control, and a dose response curve may be drawn. From this curve 50% of the effective dose(ED50) may be estimated.

| Compound | EC50 [nM] |
| --- | --- |
| c1ccc(N2CCc3ccccc3C2)cc1 [Example 4, 2-phenyl-1,2,3,4-tetrahydroisoquinoline] | 70 |

Same assay, conditions: Enterovirus; Activity versus rhinovirus serotype 1B; monolayer cell culture, compound in nutrient agarose overlay; read-out: PR(ED50)

| Compound | EC50 [nM] |
| --- | --- |
| Fc1ccc(N2CCc3ccccc3C2)cc1 [Example 8, 1,2,3,4-tetrohydro-2-(4-fluorophenyl)isoquinoline] | 210 |
| Cc1ccc(N2CCc3ccccc3C2)cc1 [Example 11, 1,2,3,4-tetrahydro-2-(4-methylphenyl)isoquinoline] | 1000 |
| COc1ccc(N2CCc3ccccc3C2)cc1 [Example 12, 1,2,3,4-tetrahydro-2-(4-methoxyphenyl)isoquinoline] | 2450 |
| Oc1ccc(N2CCc3ccccc3C2)cc1 [Example 15, 1,2,3,4-tetrahydro-2-(4-hydroxyphenyl)isoquinoline] | 1850 |
| COc1ccc(N2CCc3ccccc3C2)c(OC)c1 [Example 16, 1,23,4-tetrahydro-2-(2-4-dimethoxyphenyl)isoquinoline] | 8000 |
| Clc1ccc2c(c1)CCN(c1ccccc1)C2 [Example 18, 6-chloro-2-phenyl-1,2,3,4-tetrahydroisoquinoline] | 570 |
| Fc1ccc(N2CCc3cc(Cl)ccc3C2)cc1 [Example 20, 1,2,3,4-tetrahydro-2-(4-fluorophenyl)-6-chloroisoquinoline] | 210 |
| Clc1ccc(N2CCc3ccc(Cl)cc3C2)cc1 [Example 22, 7-chloro-2-(4-chlorophenyl)-1,2,3,4-tetrahydroisoquinoline] | 130 |
| Clc1ccc2c(c1)CN(c1ccc(Cl)c(Cl)c1)CC2 [Example 23, 7-chloro-2-(3,4-dichlorophenyl)-1,2,3,4-tetrahydroisoquinoline] | 620 |
| c1ccc(C2CCc3ccccc3N2)cc1 (centres unmarked) [Example 24, 1,2,3,4-tetrahydro-2-phenylquinoline] | 330 |
| c1ccc(C2Cc3ccccc3CN2)cc1 (centres unmarked) [Example 26, 3-phenyl-1,2,3,4-tetrahydroisoquinoline] | 290 |
| c1ccc(C2COc3ccccc3C2)cc1 (centres unmarked) [Example 27, isoflavan] | 820 |

Next, values leading:

| EC50 [nM] | Compound |
| --- | --- |
| 28 | c1ccc(C2CCc3ccccc3S2)cc1 (centres unmarked) [Example 1, thioflavan] |
| 44 | Clc1ccc(C2CCc3cc(Cl)ccc3S2)cc1 (centres unmarked) [Example 3, 4',6-dichlorothioflavan] |
| 100 | Clc1ccc(N2CCc3ccccc3C2)cc1 [Example 7, 1,2,3,4-tetrahydro-2-(4-chlorophenyl)isoquinoline] |
| 75 | Cc1cccc(C)c1N1CCc2ccccc2C1 [Example 13, 1,2,3,4-tetrahydro-2-(2,6-dimethylphenyl)isoquinoline] |
| 50 | Clc1ccc(N2CCc3cc(Cl)ccc3C2)cc1 [Example 19, 1,2,3,4-tetrahydro-2-(4-chlorophenyl)-6-chloroisoquinoline] |
| 110 | Clc1ccc2c(c1)CN(c1ccccc1)CC2 [Example 21, 7-chloro-2-phenyl-1,2,3,4-tetrahydroisoquinoline] |
